In US20240124408A1 (Sanofi, priority 2020, published 2024):
Where a name gives a salt, the structure may show the parent alone.

What was measured:
Type in all cases: cell-based
human TRPM8 [1] = target: T1, human TRPM8 (Homo sapiens, UniProt Q7Z2W7); assay: In vitro human TRPM8 automated patch-clamp assay (SyncroPatch 384PE, CHO cells); settings: CHO cells expressing human TRPM8, 28° C.
T1 construct: expressed in transfected cells; host or cells: CHO (p658 mammalian expression vector)
In short: (§1)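 Whole-cell automated patch clamp on engineered CHO lines at 28 °C, held at −60 mV, with −80 to +80 mV ramps every 5 s; one compound concentration per well. Peak current minus pre-addition baseline was normalised to no-compound control and Emax, and EC50 was fitted; 200 μM menthol wells served as control.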

pig TRPM8 [2] = target: T2, pig TRPM8 (Sus scrofa, UniProt F1SM15); assay: In vitro pig TRPM8 automated patch-clamp assay (SyncroPatch 384PE, CHO cells); settings: CHO cells expressing pig TRPM8, 28° C.
T2 construct: expressed in transfected cells; host or cells: CHO (pcDNA5/FRT/TO vector; hygromycin B and blasticidin selection)
T2 sequence (F1SM15 1-1104): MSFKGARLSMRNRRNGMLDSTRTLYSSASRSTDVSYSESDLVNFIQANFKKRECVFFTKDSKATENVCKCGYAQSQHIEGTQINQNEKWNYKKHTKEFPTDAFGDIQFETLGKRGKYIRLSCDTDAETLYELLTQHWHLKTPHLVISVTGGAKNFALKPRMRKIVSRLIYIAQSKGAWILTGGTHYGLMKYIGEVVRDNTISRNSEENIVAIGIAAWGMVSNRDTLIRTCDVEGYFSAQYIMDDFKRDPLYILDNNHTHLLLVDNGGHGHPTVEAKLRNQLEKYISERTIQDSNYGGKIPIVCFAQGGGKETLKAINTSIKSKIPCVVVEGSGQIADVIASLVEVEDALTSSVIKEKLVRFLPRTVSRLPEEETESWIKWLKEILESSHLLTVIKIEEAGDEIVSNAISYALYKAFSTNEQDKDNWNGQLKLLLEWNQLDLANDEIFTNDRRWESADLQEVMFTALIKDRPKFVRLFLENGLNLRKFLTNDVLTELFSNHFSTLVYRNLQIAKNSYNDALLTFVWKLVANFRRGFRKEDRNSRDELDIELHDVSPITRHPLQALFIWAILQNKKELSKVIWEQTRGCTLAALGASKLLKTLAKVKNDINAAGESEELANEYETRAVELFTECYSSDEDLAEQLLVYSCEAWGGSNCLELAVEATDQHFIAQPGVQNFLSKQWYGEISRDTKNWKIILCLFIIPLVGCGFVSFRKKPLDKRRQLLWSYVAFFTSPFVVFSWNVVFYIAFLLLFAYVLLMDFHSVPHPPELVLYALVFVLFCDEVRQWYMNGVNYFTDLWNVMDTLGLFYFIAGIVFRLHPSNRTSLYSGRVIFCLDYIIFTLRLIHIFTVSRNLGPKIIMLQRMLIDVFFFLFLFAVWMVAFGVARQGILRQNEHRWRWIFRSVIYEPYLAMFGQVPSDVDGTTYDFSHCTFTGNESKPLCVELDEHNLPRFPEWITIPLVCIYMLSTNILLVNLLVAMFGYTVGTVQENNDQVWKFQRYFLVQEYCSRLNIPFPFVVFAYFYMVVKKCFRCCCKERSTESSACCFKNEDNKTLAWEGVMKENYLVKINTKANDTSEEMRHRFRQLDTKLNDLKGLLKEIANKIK
In short: as §1

human TRPM8 [3] = target: T1, human TRPM8; assay: In vitro human TRPM8 fluorescence calcium flux assay (recombinant CHO cells, Fluo4-AM, FDSS6000); settings: recombinant CHO cells expressing human TRPM8; menthol-related EC50, normalized to 100 μM menthol
In short: (§2)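 Agonist EC50 values come from sixteen-point dose responses normalized to the 100 μM menthol maximum, fitted sigmoidally. Calcium rise was followed for 3 min post-addition in recombinant CHO lines (human or pig TRPM8). Cells were dye-loaded with 2 μM Fluo4-AM, 1 h at room temperature, probenecid-containing HBSS.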

pig TRPM8 [4] = target: T2, pig TRPM8; assay: In vitro pig TRPM8 fluorescence calcium flux assay (recombinant CHO cells, Fluo4-AM, FDSS6000); settings: recombinant CHO cells expressing pig TRPM8; menthol-related EC50, normalized to 100 μM menthol
In short: as §2

T1 sequence (Q7Z2W7 whole entry): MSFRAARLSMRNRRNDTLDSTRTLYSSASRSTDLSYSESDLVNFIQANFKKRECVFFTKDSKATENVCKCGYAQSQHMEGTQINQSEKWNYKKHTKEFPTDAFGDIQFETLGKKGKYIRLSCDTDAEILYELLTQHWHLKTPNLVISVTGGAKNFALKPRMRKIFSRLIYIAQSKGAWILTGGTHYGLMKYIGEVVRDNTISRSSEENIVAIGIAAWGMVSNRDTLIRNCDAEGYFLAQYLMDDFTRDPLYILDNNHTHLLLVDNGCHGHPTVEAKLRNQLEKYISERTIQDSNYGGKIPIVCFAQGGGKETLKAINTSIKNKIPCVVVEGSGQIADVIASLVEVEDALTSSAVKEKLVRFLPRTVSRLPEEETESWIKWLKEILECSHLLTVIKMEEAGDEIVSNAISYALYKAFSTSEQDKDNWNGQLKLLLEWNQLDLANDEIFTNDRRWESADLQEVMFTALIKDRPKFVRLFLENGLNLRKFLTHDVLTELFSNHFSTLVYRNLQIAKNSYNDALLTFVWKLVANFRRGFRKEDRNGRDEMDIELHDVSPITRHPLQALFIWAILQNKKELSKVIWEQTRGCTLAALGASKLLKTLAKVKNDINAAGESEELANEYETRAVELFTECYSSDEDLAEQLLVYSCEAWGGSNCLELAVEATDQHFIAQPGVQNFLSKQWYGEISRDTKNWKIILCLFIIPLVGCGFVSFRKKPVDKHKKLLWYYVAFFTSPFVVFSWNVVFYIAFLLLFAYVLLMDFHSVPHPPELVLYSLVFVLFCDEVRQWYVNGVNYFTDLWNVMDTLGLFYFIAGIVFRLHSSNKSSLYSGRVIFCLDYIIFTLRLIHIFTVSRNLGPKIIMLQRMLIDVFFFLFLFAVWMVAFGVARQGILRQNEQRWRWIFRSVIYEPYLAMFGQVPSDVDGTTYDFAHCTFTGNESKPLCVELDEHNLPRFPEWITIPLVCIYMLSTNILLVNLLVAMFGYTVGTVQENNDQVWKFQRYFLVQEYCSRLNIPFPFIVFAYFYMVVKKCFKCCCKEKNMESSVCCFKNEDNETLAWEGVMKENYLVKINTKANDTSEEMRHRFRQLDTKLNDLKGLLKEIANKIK

Structure (SMILES) | EC50 (human TRPM8 [1]) [nM] | EC50 (pig TRPM8 [2]) [nM] | EC50 (human TRPM8 [3]) [nM] | EC50 (pig TRPM8 [4]) [nM]
COC(=O)C(CNC(=O)[C@]1(O)C[C@H](C)CC[C@H]1C(C)C)c1ccccc1 (stereo partly drawn) [Example 69] | 1930 | 1580 | 46 | 42
CC(C)[C@@H]1CC[C@@H](C)C[C@@]1(O)C(=O)NCCc1ccccc1OC[C@H](O)CO [Example 24, (1S,2S,5R)—N-(2-((R)-2,3-dihydroxypropoxy)phenethyl)-1-hydroxy-2-isopropyl-5-methylcyclohexane-1-carboxamide] | 2580 | 1700 | 7.8 | 13.4
CC(C)[C@@H]1CC[C@@H](C)C[C@@]1(O)C(=O)NC[C@H](O)c1cccc(CO)c1 [Example 43, (1S,2S,5R)-1-hydroxy-N-((2R)-hydroxy-2-(3-(hydroxymethyl)phenyl)ethyl)-2-isopropyl-5-methylcyclohexane-1-carboxamide] | 4000 | 3970 | 191 | 56.9
CC(C)[C@@H]1CC[C@@H](C)C[C@@]1(O)C(=O)NCCc1cccc(C#N)c1 [Example 48, (1S,2S,5R)—N-(3-cyanophenethyl)-1-hydroxy-2-isopropyl-5-methylcyclohexane-1-carboxamide] | 2630 | 4600 | 13.5 | 5
CC(C)[C@@H]1CC[C@@H](C)C[C@@]1(O)C(=O)NCCc1ccccc1OCCO [Example 7, (1S,2S,5R)-1-hydroxy-N-(2-(2-hydroxyethoxy)phenethyl)-2-isopropyl-5-methylcyclohexane-1-carboxamide] | 2800 | 6190 | 8.5 | 8.1
CC(C)[C@@H]1CC[C@@H](C)C[C@@]1(O)C(=O)NCCc1ccc(O)cc1 [Example 117, (1S,2S,5R)-1-hydroxy-N-[2-(4-hydroxyphenyl)ethyl]-2-isopropyl-5-methyl-cyclohexanecarboxamide] | 2500 | 2330 | 17.8 | 4.5
CC(C)[C@@H]1CC[C@@H](C)C[C@@]1(O)C(=O)NC[C@@H](O)c1cccc(CO)c1 [Example 44, (1S,2S,5R)-1-hydroxy-N-((2S)-hydroxy-2-(3-(hydroxymethyl)phenyl)ethyl)-2-isopropyl-5-methylcyclohexane-1-carboxamide] | 1800 | 711 | 34.9 | 10.6
COC(=O)[C@@H](N)Cc1cccc(CCNC(=O)[C@]2(O)C[C@H](C)CC[C@H]2C(C)C)c1 [Example 20, methyl (S)-2-amino-3-(3-(2-((1S,2S,5R)-1-hydroxy-2-isopropyl-5-methylcyclohexane-1-carboxamido)ethyl)phenyl)propanoate] | 1400 | 1420 | 3.2 | 6.6
CC(C)[C@@H]1CC[C@@H](C)C[C@@]1(O)C(=O)NCCc1cccc(C(=O)OCCN)c1 [Example 16, 2-aminoethyl 3-(2-((1S,2S,5R)-1-hydroxy-2-isopropyl-5-methylcyclohexane-1-carboxamido)ethyl) benzoate hydrochloride] | 1290 | 2370 | 16 | 13
CC(C)[C@@H]1CC[C@@H](C)C[C@@]1(O)C(=O)NCCc1ccncc1 [Example 119, (1S,2S,5R)-1-hydroxy-2-isopropyl-5-methyl-N-[2-(4-pyridyl)ethyl]cyclohexanecarboxamide] | 3200 | 7210 | 37.4 | 6.3
CC(C)[C@@H]1CC[C@@H](C)C[C@@]1(O)C(=O)NCC(=O)c1cccs1 [Example 149, (1S,2S,5R)-1-hydroxy-2-isopropyl-5-methyl-N-[2-oxo-2-(2-thienyl)ethyl]cyclohexanecarboxamide] | 2300 | 1560 | 6 | 2
CC(C)[C@@H]1CC[C@@H](C)C[C@@]1(O)C(=O)NCC(CO)c1ccccc1 (stereo partly drawn) [Example 70, (1S,2S,5R)-1-hydroxy-N-(3-hydroxy-2-phenylpropyl)-2-isopropyl-5-methylcyclohexane-1-carboxamide] | 3990 | 3740 | 9 | 8
COc1cc(C=O)ccc1OC(=O)CNC(=O)[C@]1(O)C[C@H](C)CC[C@H]1C(C)C [Example 68, 4-formyl-2-methoxyphenyl ((1S,2S,5R)-1-hydroxy-2-isopropyl-5-methylcyclohexane-1-carbonyl)glycinate] | 2690 | 3640 | 44 | 32

Stronger by EC50 (human TRPM8 [1]), values ahead:

EC50 (human TRPM8 [1]) [nM] | EC50 (pig TRPM8 [2]) [nM] | EC50 (human TRPM8 [3]) [nM] | EC50 (pig TRPM8 [4]) [nM] | Structure (SMILES)
1200 | 3500 | 23.8 | 17.4 | COc1ccccc1CCNC(=O)[C@]1(O)C[C@H](C)CC[C@H]1C(C)C [Example 155, (1S,2S,5R)-1-hydroxy-2-isopropyl-N-[2-(2-methoxyphenyl)ethyl]-5-methyl-cyclohexanecarboxamide]
1100 | 5110 | 195 | 74.5 | CC(C)[C@@H]1CC[C@@H](C)C[C@@]1(O)C(=O)NC[C@H](O)c1cccc(O)c1 [Example 41, (1S,2S,5R)-1-hydroxy-N-((2R)-hydroxy-2-(3-hydroxyphenyl)ethyl)-2-isopropyl-5-methylcyclohexane-1-carboxamide]
1030 | 887 | 5.2 | 2.2 | Cc1cccc(CCNC(=O)[C@]2(O)C[C@H](C)CC[C@H]2C(C)C)c1 [Example 58, (1S,2S,5R)-1-hydroxy-2-isopropyl-5-methyl-N-(3-methylphenethyl)cyclohexane-1-carboxamide]
1010 | 1330 | 3 | 3 | CC(C)[C@@H]1CC[C@@H](C)C[C@@]1(O)C(=O)NCC(O)c1ccccc1O (stereo partly drawn) [Example 35, (1S,2S,5R)-1-hydroxy-N-(2-hydroxy-2-(2-hydroxyphenyl)ethyl)-2-isopropyl-5-methylcyclohexane-1-carboxamide]
610 | 510 | 2.7 | 1.3 | CC(C)[C@@H]1CC[C@@H](C)C[C@@]1(O)C(=O)NCC(=O)c1ccc(F)c(F)c1 [Example 136, (1S,2S,5R)-N-[2-(3,4-difluorophenyl)-2-oxo-ethyl]-1-hydroxy-2-isopropyl-5-methyl-cyclohexanecarboxamide]
600 | 567 | 14.5 | 28.1 | CC(C)[C@@H]1CC[C@@H](C)C[C@@]1(O)C(=O)NCC(NC(=O)CN)c1ccccc1 (single isomer, unassigned) [Example 184]
470 | 276 | 2.4 | 1.8 | CC(C)[C@@H]1CC[C@@H](C)C[C@@]1(O)C(=O)NCC(=O)c1ccccc1O [Example 38, (1S,2S,5R)-1-hydroxy-N-(2-(2-hydroxyphenyl)-2-oxoethyl)-2-isopropyl-5-methylcyclohexane-1-carboxamide]
72 | 237 | 0.3 | 0.5 | CC(C)[C@@H]1CC[C@@H](C)C[C@@]1(O)C(=O)NCCc1ccccc1OCCN [Example 6, (1S,2S,5R)—N-(2-(2-aminoethoxy)phenethyl)-1-hydroxy-2-isopropyl-5-methylcyclohexane-1-carboxamide]
